From patent US20100167933A1, “Piperazine Compounds With Herbicidal Action” (priority 2007, published 2010)

System: APESV (Apera spica-venti, windgrass)
Assay: greenhouse experiment, pre-emergence herbicidal activity against APESV
Type: in vivo
Conditions: pre-emergence method, application rate 0.5 kg/ha; scale from 0 to 100
Description: The seeds of the test plants were sown separately for each species. For the pre-emergence treatment, the active ingredients, which had been suspended or emulsified in water, were applied directly after sowing by means of finely distributing nozzles. The containers were irrigated gently to promote germination and growth and subsequently covered with transparent plastic hoods until the plants had rooted. This cover caused uniform germination of the test plants, unless this has been impaired by the active ingredients. Depending on the species, the plants were kept at 10-25° C. or 20-35° C. The test period extended over 2 to 4 weeks. During this time, the plants were tended, and their response to the individual treatments was evaluated. Evaluation was carried out using a scale from 0 to 100. 100 means no emergence of the plants, or complete destruction of at least the aerial moieties, and 0 means no damage, or normal course of growth. A good herbicidal activity is given at values of at least 70 and a very good herbicidal activity is given at values of at least 85. The plants used in the greenhouse experiments belonged to the following species: [table]

Structure (SMILES) | herbicidal activity against APESV
CN1C(=O)C(Cc2ccccc2)(C(=O)C(F)(F)F)N(C)C(=O)/C1=C/c1ccccc1C#N (stereo not shown) [Example 4, 2-[5-Trifluoroacetyl-5-benzyl-1,4-dimethyl-3,6-dioxopiperazin-(Z)-2-ylidenemethyl]benzonitrile] | good to very good
CSC1(Cc2ccccc2)C(=O)N(C)C(=Cc2ccccc2C#N)C(=O)N1C (stereo not shown) [1a/1b, 2-(5-Benzyl-1,4-dimethyl-5-methylsulfanyl-3,6-dioxopiperazin-2-ylidenemethyl)benzonitrile] | good to very good

Same assay, conditions: pre-emergence method, application rate 1.0 kg/ha; scale from 0 to 100

Structure (SMILES) | herbicidal activity against APESV
C=CCC1(Cc2ccccc2)C(=O)N(C)/C(=C\c2ccccc2C#N)C(=O)N1C (stereo not shown) [Example 2, 2-(5-Benzyl-1,4-dimethyl-5-allyl-3,6-dioxo-piperazin-(Z)-2-ylidenemethyl)-benzonitrile] | very good (a very good herbicidal activity is given at values of at least 85)

System: not given
Assay: not given
Conditions: not given

melting point [°C] | Structure (SMILES)
224 | CN1C(=O)C2(CC2c2ccccc2)N(C)C(=O)/C1=C/c1cccnc1C#N (single isomer, unassigned) [Example 34]
190 | CN1C(=O)C2(CC2c2ccccc2)N(C)C(=O)/C1=C/c1ccccc1C#N (single isomer, unassigned) [Example 32]
169 | CN1C(=O)C2(CC2c2ccccc2)N(C)C(=O)/C1=C/c1cccnc1Cl (stereo not shown) [Example 33]

More lines, now with the values behind:

Structure (SMILES) | melting point [°C]
CN1C(=O)C2(CC2c2ccccc2)N(C)C(=O)/C1=C/c1ccccc1[N+](=O)[O-] (stereo not shown) [Example 30, 6-[1-(2-Nitrophenyl)-meth-(Z)-ylidene]-4,7-dimethyl-1-phenyl-4,7-diazaspiro[2.5]octane-5,8-dione] | 145
CN1C(=O)c2cc3cccnc3n2C(=O)C1(C)Cc1ccccc1 (stereo not shown) [Example 24] | 180
CN1C(=O)C2(CC2c2ccccc2)N(C)C(=O)/C1=C/c1ccccc1Br (stereo not shown) [Example 31] | 78
CN1C(=O)c2cc3c([N+](=O)[O-])ccc(F)c3n2C(=O)C1(C)Cc1ccccc1 (stereo not shown) [Example 23] | 170 to 172
